Source: ChEMBL document CHEMBL4507276 (2021)

Columns and labels:
Conditions in all cases: Compound concentration 1000.0 nM
[1] = target: T1, Beta-adrenergic receptor kinase 1 (Homo sapiens) (UniProt P25098)
T1 sequence (whole entry): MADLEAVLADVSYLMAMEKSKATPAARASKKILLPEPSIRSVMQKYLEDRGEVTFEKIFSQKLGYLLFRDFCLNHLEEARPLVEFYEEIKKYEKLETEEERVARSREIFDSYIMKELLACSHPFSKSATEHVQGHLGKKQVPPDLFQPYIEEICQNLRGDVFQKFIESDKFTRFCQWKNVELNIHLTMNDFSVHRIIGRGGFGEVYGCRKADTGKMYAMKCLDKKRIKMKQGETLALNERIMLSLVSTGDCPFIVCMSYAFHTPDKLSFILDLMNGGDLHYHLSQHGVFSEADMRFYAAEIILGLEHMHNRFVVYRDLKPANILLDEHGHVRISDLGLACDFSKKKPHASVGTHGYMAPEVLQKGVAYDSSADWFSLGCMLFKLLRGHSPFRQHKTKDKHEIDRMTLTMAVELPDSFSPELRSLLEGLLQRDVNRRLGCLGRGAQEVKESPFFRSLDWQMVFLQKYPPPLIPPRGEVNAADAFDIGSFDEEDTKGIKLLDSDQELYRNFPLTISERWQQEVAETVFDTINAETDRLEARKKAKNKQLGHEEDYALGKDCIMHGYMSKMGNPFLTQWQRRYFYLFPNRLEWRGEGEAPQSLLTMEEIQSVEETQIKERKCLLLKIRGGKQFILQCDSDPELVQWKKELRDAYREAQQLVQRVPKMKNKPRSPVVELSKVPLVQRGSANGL

[2] = target: T2, Ephrin type-B receptor 1 (Homo sapiens) (UniProt P54762)
T2 sequence (whole entry): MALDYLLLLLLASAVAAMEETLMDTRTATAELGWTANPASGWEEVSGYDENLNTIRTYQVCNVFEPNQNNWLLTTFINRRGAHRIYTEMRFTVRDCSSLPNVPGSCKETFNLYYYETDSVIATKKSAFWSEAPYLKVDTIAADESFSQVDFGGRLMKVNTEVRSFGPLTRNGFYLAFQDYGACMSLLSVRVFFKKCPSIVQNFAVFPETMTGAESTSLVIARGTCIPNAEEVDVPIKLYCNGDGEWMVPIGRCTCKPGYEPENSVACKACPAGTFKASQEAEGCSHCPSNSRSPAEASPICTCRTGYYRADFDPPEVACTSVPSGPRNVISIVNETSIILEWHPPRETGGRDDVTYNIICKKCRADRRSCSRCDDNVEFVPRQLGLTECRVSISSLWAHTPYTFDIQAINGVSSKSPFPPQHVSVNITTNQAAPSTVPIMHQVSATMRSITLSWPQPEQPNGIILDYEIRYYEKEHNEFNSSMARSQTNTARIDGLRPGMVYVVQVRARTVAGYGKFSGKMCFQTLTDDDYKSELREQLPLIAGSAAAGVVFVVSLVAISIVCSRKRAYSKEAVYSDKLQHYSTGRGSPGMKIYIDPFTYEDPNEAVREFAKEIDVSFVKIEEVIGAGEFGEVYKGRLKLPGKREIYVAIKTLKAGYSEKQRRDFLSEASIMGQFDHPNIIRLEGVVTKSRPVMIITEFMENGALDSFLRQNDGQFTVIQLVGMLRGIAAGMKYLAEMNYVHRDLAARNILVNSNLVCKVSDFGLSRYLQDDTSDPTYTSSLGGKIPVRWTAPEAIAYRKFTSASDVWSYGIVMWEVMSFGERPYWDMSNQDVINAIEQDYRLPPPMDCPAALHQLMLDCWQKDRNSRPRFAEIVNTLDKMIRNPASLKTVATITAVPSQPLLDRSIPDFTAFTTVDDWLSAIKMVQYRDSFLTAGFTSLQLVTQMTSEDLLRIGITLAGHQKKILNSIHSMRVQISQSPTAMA

[3] = target: T3, G protein-coupled receptor kinase 3 (Homo sapiens) (UniProt P35626)
T3 sequence (whole entry): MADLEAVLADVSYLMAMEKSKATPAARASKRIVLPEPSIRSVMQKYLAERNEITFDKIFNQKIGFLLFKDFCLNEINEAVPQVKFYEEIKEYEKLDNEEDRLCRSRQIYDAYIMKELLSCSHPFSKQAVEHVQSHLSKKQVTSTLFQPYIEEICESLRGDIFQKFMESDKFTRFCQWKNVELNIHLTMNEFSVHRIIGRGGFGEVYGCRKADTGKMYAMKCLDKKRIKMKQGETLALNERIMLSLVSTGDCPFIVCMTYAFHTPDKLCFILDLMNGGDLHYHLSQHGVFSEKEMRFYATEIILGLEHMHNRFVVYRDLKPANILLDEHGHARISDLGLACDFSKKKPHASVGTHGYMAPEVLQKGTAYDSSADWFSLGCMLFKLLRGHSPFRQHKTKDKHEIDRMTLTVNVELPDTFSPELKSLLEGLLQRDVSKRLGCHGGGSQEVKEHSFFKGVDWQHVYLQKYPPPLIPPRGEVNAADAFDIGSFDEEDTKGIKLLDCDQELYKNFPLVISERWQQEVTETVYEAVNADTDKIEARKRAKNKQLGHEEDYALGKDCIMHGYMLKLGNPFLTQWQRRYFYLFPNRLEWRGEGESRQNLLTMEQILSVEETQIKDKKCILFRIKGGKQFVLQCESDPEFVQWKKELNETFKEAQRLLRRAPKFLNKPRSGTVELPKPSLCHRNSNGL

[4] = target: Tyrosine-protein kinase Fgr (Homo sapiens) (UniProt P09769)
[5] = target: Mitogen-activated protein kinase 9 (Homo sapiens) (UniProt P45984)

Measured: residual activity

Chain of Tyrosine-protein kinase Fgr (Homo sapiens) (P09769 2-529 limits assumed): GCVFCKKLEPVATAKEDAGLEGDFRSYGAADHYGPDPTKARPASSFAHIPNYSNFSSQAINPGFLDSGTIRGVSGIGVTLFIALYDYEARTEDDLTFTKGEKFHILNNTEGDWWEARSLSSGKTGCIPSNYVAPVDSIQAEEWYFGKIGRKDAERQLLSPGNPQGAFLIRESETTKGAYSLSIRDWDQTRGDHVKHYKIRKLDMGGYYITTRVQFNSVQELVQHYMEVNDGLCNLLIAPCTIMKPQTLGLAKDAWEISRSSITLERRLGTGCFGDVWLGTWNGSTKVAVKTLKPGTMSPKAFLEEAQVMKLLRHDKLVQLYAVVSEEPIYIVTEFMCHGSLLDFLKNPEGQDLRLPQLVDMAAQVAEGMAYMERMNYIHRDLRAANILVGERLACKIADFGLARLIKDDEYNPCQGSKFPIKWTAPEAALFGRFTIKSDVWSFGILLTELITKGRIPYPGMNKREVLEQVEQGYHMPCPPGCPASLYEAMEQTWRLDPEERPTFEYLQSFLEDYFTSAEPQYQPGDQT
Chain of Mitogen-activated protein kinase 9 (Homo sapiens) (P45984 whole entry, looked up): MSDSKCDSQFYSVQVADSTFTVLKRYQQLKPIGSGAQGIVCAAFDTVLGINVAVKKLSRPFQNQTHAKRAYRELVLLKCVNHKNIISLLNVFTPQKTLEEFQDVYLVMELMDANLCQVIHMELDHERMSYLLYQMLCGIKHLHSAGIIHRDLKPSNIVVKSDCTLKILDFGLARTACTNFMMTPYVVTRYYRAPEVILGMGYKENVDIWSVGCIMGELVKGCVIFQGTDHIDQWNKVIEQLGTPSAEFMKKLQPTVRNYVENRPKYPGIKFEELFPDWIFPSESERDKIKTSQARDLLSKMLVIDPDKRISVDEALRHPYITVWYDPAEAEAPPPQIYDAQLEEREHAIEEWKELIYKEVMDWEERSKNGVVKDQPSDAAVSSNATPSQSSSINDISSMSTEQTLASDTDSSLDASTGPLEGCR

CN(C)C(=O)Cn1cc(-c2nc(C3(c4ccc(-c5cnc(N)nc5)cc4)CC3)no2)cn1 [BI 0153]
inactive: [1] 67% | [2] 100% | [3] 69% | [4] 100% | [5] 81%

CN(C)C(=O)Cn1cc(-c2nc([C@@](C)(c3ccc(-c4cnc(N)nc4)cc3)C3CC3)no2)cn1 [BI 665915]
inactive: [1] 78% | [2] 100% | [3] 86% | [4] 100% | [5] 75%
